Each molecule was assayed against T1, Carnitine monooxygenase oxygenase/reductase subunit (Escherichia coli (strain K12), UniProt P0ABR7+P76254) (assay: BCA Protein Assay).
T1 sequence (P0ABR7 whole entry): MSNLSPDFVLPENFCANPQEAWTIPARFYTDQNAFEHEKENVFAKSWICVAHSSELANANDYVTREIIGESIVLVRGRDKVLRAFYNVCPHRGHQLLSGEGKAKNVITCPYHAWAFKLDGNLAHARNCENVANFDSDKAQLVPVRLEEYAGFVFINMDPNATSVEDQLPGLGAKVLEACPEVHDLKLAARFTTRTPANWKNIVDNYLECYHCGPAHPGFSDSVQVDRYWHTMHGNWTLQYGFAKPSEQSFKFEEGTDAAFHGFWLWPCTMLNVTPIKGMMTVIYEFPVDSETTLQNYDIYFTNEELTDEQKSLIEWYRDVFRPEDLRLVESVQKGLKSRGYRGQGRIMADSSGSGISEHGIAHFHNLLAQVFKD
T1 sequence (P76254 whole entry): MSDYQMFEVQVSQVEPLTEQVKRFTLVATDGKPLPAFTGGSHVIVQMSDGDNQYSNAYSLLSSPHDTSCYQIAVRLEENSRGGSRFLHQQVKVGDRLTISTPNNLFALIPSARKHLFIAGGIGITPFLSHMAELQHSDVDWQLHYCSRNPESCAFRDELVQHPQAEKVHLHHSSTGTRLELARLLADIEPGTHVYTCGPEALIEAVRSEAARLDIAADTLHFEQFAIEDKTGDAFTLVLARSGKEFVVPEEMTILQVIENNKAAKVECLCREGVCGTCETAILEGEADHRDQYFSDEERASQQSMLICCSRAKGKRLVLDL
Source text: Escherichia coli BL21*DE3 pET30a-Ec yeaWX #1 (Ec YeaWX) strain was generated as described below. The contiguous Escherichia coli coding sequence yeaW (equivalent to uniprot ID P0ABR7.1 (YeaW) (SEQ ID NO: 2)) and yeaX (equivalent to uniprot ID P76254.1 (YeaX) (SEQ ID NO: 3)) were PCR amplified from Escherichia coli strain K-12 substr. BW25113 genomic DNA. PCR primers (YeaW_Nde I_fwd2-SEQ ID NO: 4; YeaX_rev2-SEQ ID NO: 5) were designed to create a 5′ NdeI restriction site including the ATG start codon of yeaW and create a PstI restriction site just 3′ of the yeaX TAG stop codon.The bacteria were grown aerobically in 50 mL LB broth (Difco #244620; 10 g/L Tryptone, 5 g/L yeast extract, 10 g/L NaCl, 50 μg/mL kanamycin), in a 500 mL Erlenmeyer flask. The cultures were inoculated from glycerol stock of BL21*DE3 pET30a-Ec yeaWX #1 strain. Strains were cultured all day at 37° C. with 250 rpm shaking. Two 300 mL Minimal M9 Medium (6 g/L Na2HPO4, 3 g/L KH2PO4, 0.5 g/L NaCl, 1 g/L NH4Cl, 0.1 mM CaCl2, 1 mM MgSO4, 0.2% Dextrose, 1 mg/L Thiamine, 50 μg/mL kanamycin), in 1 L Erlenmeyer flasks, were inoculated with 5 mL of the LB broth day culture and cultured overnight at 37° C. with 250 rpm shaking. The overnight cultures were used to inoculate twelve 1 L cultures of Minimal M9 media in 2.8 L fluted Erlenmeyer flasks to an OD 600 nm of 0.05 (typically approximately 28 mLs), which were grown at 37° C. with 250 rpm shaking until an OD600 of approximately 0.4 was reached. Expression of YeaWX was induced with 1 mM IPTG and the induced cultures were further grown overnight at 37° C. with 250 rpm shaking. The biomass was pelleted by centrifugation at 6000×g for 12 minutes at 4° C. The cell pellet was suspended in 240 mL of ice-cold 1× Phosphate Buffered Saline (Ca2+ and Mg2+ free). […] Glycerol was added to the centrifuged lysate supernatant at a final concentration of 15% A protein concentration of the centrifuged lysate supernatant was determined by a BCA Protein Assay Kit (Pierce #23225), typically in the 2.5 to 4.5 mg/ml range. […]
Molecule C[N+](C)(CC#N)CCN=C=S [US10213407, ID 8] has an IC50 of 210 µM.
In the case of CCOC(=O)C[N+](CC)(CC)CCCN=C=S [US10213407, ID 3], the IC50 is reported as 220 µM.
CCOC(=O)C[N+](C)(C)CCN=C=S [US10213407, ID 4] gave an IC50 of 300 µM.
